Results as given in ChEMBL document CHEMBL1157519, “Cytotoxic acylated triterpene saponins from the husks of Xanthoceras sorbifolia” (J Nat Prod, 2008).

System: OVCAR-3
Experiment: Growth inhibition of human OVCAR-3 cells by MTT assay
Format: functional, cell-based

| IC50 | Compound |
| --- | --- |
| 4.8 µM | C/C=C(/C)C(=O)O[C@H]1[C@H](OC(=O)/C(C)=C\C)[C@]2(CO)[C@H](O)C[C@]3(C)C(=CC[C@@H]4[C@@]5(C)CC[C@H](O[C@@H]6O[C@H](C(=O)O)[C@@H](O)[C@H](O[C@@H]7O[C@@H](CO)[C@H](O)[C@H]7O)[C@H]6O[C@@H]6O[C@H](CO)[C@H](O)[C@H](O)[C@H]6O)[C@@H](C)[C@@H]5CC[C@]43C)[C@@H]2CC1(C)C |
| 4.2 µM | C/C=C(/C)C(=O)O[C@H]1[C@H](OC(=O)C(C)C)[C@]2(CO)[C@H](O)[C@H](O)[C@]3(C)C(=CC[C@@H]4[C@@]5(C)CC[C@H](O[C@@H]6O[C@H](C(=O)O)[C@@H](O)[C@H](O[C@@H]7O[C@@H](CO)[C@H](O)[C@H]7O)[C@H]6O[C@@H]6O[C@H](CO)[C@H](O)[C@H](O)[C@H]6O)[C@@H](C)[C@@H]5CC[C@]43C)[C@@H]2CC1(C)C |
| 13.1 µM | C/C=C(/C)C(=O)O[C@H]1[C@H](O)[C@]2(COC(=O)C(C)CC)[C@H](O)[C@H](O)[C@]3(C)C(=CC[C@@H]4[C@@]5(C)CC[C@H](O[C@@H]6O[C@H](C(=O)O)[C@@H](O)[C@H](O[C@@H]7O[C@@H](CO)[C@H](O)[C@H]7O)[C@H]6O[C@@H]6O[C@H](CO)[C@@H](O)[C@H](O)[C@H]6O)[C@@H](C)[C@@H]5CC[C@]43C)[C@@H]2CC1(C)C (some centres undefined) |
| 4 µM | C/C=C(/C)C(=O)O[C@H]1[C@H](OC(=O)/C(C)=C\C)[C@]2(CO)[C@H](O)[C@H](O)[C@]3(C)C(=CC[C@@H]4[C@@]5(C)CC[C@H](O[C@@H]6O[C@H](C(=O)O)[C@@H](O)[C@H](O[C@@H]7O[C@@H](CO)[C@H](O)[C@H]7O)[C@H]6O[C@@H]6O[C@H](CO)[C@H](O)[C@H](O)[C@H]6O)[C@@H](C)[C@@H]5CC[C@]43C)[C@@H]2CC1(C)C |
